According to article PMC3665789 (PLoS ONE, 2013):
Where two headings read alike, the source gives them in different places.

Columns and labels:
HIV-1 IIIB = experiment: Time-of-drug-addition study, HIV; assay type: cell-based; conditions: MT-4 cells; for time of addition after infection at which antiviral activity is completely lost: p24 Ag ELISA after 31 h, 421 µM dextran sulfate 8000, 6 µM AMD3100
Description: The time-of-drug-addition (TOA) experiments were performed as described. In brief, 1×10^6 MT-4 cells/ml were infected with HIV-1 X4 IIIB at a multiplicity of infection (MOI) of 0.5. The compounds were added at different time points in a range from 0 to 26 h post-infection. After 31 h, HIV-1 replication was detected by p24 HIV-1 Ag ELISA as described above. The reference compounds were added at 100 times their EC50-values, as obtained in the MT-4 cell antiviral assay.

HIV-1 NL4.3 = experiment: Pre-incubation of MT-4 cells with compound, wash, then HIV-1 NL4.3 infection; assay type: cell-based; conditions: MT-4 cells pre-incubated 2 h at 37°C, washed, infected with HIV-1 NL4.3; 5 days; control 100% CPE
[1] = system: HIV-1 NL4.3 binding to CD4+ SupT1 cells; assay type: cell-based; conditions: LabyA1 9.6 µM, sCD4 10 µg/ml, AMD3100 12 µM; no compound MFI 9.8, background 3.9
HSV-1 wild-type = experiment: microbe, parasite or virus in culture; conditions: Human alphaherpesvirus 1, HEL, read-out: Median EC50
[2] = system: HSV-2 wild-type G (reference strain); experiment: microbe, parasite or virus in culture; conditions: Human alphaherpesvirus 2, HEL
[3] = system: HSV-1 wild-type KOS (reference strain); experiment: microbe, parasite or virus in culture; conditions: Human alphaherpesvirus 1, HEL
[4] = system: HSV-1 wild-type RV-175 (clinical isolate); experiment: microbe, parasite or virus in culture; conditions: Human alphaherpesvirus 1, HEL
HSV-2 wild-type = experiment: microbe, parasite or virus in culture; conditions: Human alphaherpesvirus 2, HEL, read-out: Median EC50
HSV-2 strain G = experiment: Time-of-drug-addition study, HSV-2; assay type: cell-based; conditions: HEL cells; LabyA1 19 µM, ACV 35 µM; after 3 days
Description: TOA experiments for HSV-2 were performed identically as the viral replication assays, but each compound separately (LabyA1 or ACV) was added together with the virus (0 h) or after 2 h post-infection. The reference compound was added at least 100 times its EC50-value, as obtained in the HEL cell line (Table 3).

[5] = system: HSV-1 wild-type C559142 (clinical isolate); experiment: microbe, parasite or virus in culture; conditions: Human alphaherpesvirus 1, HEL
[6] = system: HSV-2 wild-type RV-124 (clinical isolate); experiment: microbe, parasite or virus in culture; conditions: Human alphaherpesvirus 2, HEL
[7] = system: HSV-2 wild-type RV-24 (clinical isolate); experiment: microbe, parasite or virus in culture; conditions: Human alphaherpesvirus 2, HEL
HSV-1 TK^- = experiment: microbe, parasite or virus in culture; conditions: Human alphaherpesvirus 1, HEL, read-out: Median EC50
HSV-2 TK^- = experiment: Anti-HSV CPE assay in HEL, summary; assay type: cell-based; conditions: Human alphaherpesvirus 2, HEL, read-out: Median EC50
[8] = system: HSV-1 wild-type RV-174 (clinical isolate); experiment: microbe, parasite or virus in culture; conditions: Human alphaherpesvirus 1, HEL
[9] = system: HSV-1 TK^- RV-117 (clinical isolate); experiment: microbe, parasite or virus in culture; conditions: Human alphaherpesvirus 1, HEL
[10] = system: HSV-2 TK^- RV-129 (clinical isolate); experiment: microbe, parasite or virus in culture; assay type: cell-based; conditions: Human alphaherpesvirus 2, HEL
[11] = system: HSV-1 TK^- RV-179 (clinical isolate); experiment: microbe, parasite or virus in culture; conditions: Human alphaherpesvirus 1, HEL
[12] = system: HSV-1 TK^- RV-294 (clinical isolate); experiment: microbe, parasite or virus in culture; conditions: Human alphaherpesvirus 1, HEL
[13] = system: HSV-2 TK^- BA19026589 (clinical isolate); experiment: microbe, parasite or virus in culture; conditions: Human alphaherpesvirus 2, HEL
herpes virus = experiment: Anti-herpes virus activity of griffithsin in vitro; assay type: cell-based
HIV = system: HIV; parameters: method as in PMID 15613479, PMID 17669213; conditions: cited from earlier work
PBMCs = experiment: Activation markers CD25 and CD69 on PBMCs (flow cytometry); assay type: cell-based; conditions: 3 days, LabyA1 9.6 µM, PHA 0.016 µM
Description: The effects of 9.6 µM LabyA1 and 0.016 µM PHA on the expression levels of the cellular activation markers CD25 and CD69 on PBMCs was measured after 3 days of incubation at 37°C. After washing with PBS/FCS2%, cells were incubated with anti-CD4 conjugated with PerCP (BD Biosciences) and co-stained with the PE-conjugated mAbs anti-CD25 or anti-CD69 (both BD Biosciences) for 30 min at 4°C. For aspecific background staining, cells were incubated with SimulTest™ Control (IgGγ1-FITC/IgGγ2a-PE). After washing, and fixation with 1% formaldehyde solution, samples were analyzed using the FACSCalibur and CellQuest software (BD Biosciences).

HIV-1 R5 BaL in PBMCs = experiment: Susceptibility of pre-treated PBMCs for HIV-1 infection; conditions: washed, HIV-1 BaL, day 7
Description: The next day, cells were collected, extensively washed in culture medium, resuspended (5×10^5 cells/450 µl) and seeded in a 48-well plate. Immediately afterwards, 50 µl of HIV-1 R5 strain BaL (500 pg/well) was added and cells were cultures for 7 days. Supernatant was collected 7 days post virus infection and viral replication was determined by p24 HIV-1 Ag ELISA.

For `c1cc(CN2CCCNCCNCCCNCC2)ccc1CN1CCCNCCNCCCNCC1` [AMD3100], the “time of addition after infection at which antiviral activity is completely lost” value (HIV-1 IIIB) was 2 h, the “% CPE after pre-incubation of cells and removal of compound” value (HIV-1 NL4.3) was 13.5±5.5 % CPE and the “virus binding, mean fluorescence intensity (MFI) of anti-gp120 (9205) mAb” value [1] was 9.5.
With `Nc1nc2c(ncn2COCCO)c(=O)[nH]1` [Acyclovir, acyclovir] the EC50 (HSV-1 wild-type) was 180 nM, the EC50 [2] was 270 ± 10 nM and the EC50 [3] was 180 ± 90 nM. For the same compound, the EC50 [4] was 180 ± 30 nM, the EC50 (HSV-2 wild-type) was 270 nM and the “HSV-2 induced CPE, compound given simultaneously with virus (0 h)” value (HSV-2 strain G) was “no CPE or viral replication were observed”. The “antiviral activity, compound added after 2 h adsorption period” value (HSV-2 strain G) was “still active”, the EC50 [5] was 90 ± 20 nM and the EC50 [6] was 400 ± 60 nM. The EC50 [7] was 130 ± 90 nM, the EC50 (HSV-1 TK^-) was > 79000 nM and the EC50 (HSV-2 TK^-) was 52 µM. For the same compound, the EC50 [8] was 310 ± 20 nM.
Work on `Nc1ccn(C[C@@H](CO)OCP(=O)(O)O)c(=O)n1` [Cidofovir, cidofovir] yielded an EC50 (HSV-1 wild-type) of 820 nM, an EC50 [9] of 500 ± 120 nM and an EC50 [2] of 600 ± 100 nM. For the same compound, the EC50 [10] was 550 ± 200 nM, the EC50 [3] was 480 ± 110 nM and the EC50 [4] was 1100 ± 100 nM. It also gave an EC50 [11] of 390 ± 120 nM, an EC50 (HSV-2 wild-type) of 1100 nM and an EC50 [5] of 530 ± 90 nM. For the same compound, the EC50 [6] was 1300 ± 300 nM, the EC50 [7] was 1100 ± 300 nM and the EC50 [12] was 300 ± 20 nM. For the same compound, the EC50 [13] was 950 ± 240 nM, the EC50 (HSV-1 TK^-) was 390 nM and the EC50 (HSV-2 TK^-) was 0.75 µM. For the same compound, the EC50 [8] was 1300 ± 100 nM.
For `Cc1ccnc2c1NC(=O)c1cccnc1N2C1CC1` [nevirapine], the “time of addition post-infection up to which full activity is kept” value (HIV-1 IIIB; 7.5 µM nevirapine) was 4 h.
For `C[C@H](Cn1cnc2c(N)ncnc21)OCP(=O)(O)O` [tenofovir], the EC50 ([2]; read-out: EC50 against HSV-2) was > 200000 nM.
In the case of Griffithsin, the “anti-herpes virus activity in vitro” value (herpes virus) is listed as “lacks anti-herpes virus activity in vitro” and the anti-HIV activity (HIV) is listed as “pM range”.
In the case of dextran sulfate 8000, the “time of addition after infection at which antiviral activity is completely lost” value (HIV-1 IIIB) is reported as 1 h.
In the case of enfuvirtide [T20], the “% CPE after pre-incubation of cells and removal of compound” value (HIV-1 NL4.3) is reported as 72.6±13.4 % CPE.
In the case of “phytohemagglutinin [PHA, reference compound]”, the “percentage of CD4+CD69+ cells” value (PBMCs; untreated 1.4±0.8%) is reported as 30.9±5.5%, the “percentage of CD4+CD25+ cells” value (PBMCs; untreated 10.7±3.2%) is reported as 37.2±6.6% and the “p24 HIV-1 Ag production after pre-treatment” value (HIV-1 R5 BaL in PBMCs; PBMCs pre-treated 24 h with 0.016 µM) is reported as 125.08 ± 37.81 ng/mL. The “p24 HIV-1 Ag production after pre-treatment” value (HIV-1 R5 BaL in PBMCs; PBMCs pre-treated 24 h with 0.078 µM) was 169.54 ± 35.22 ng/mL.
